Key:
[1] = Acute toxicity test (LD50, Litchfield-Wilcoxon), rats; conditions: rat, in vivo, ip, intraperitoneal
Method: (§1) Toxicity tests were carried out by intraperitoneal administration of the compound of the present invention to groups each comprising 10 ICR-strain mice and SD-strain rats. LD50 was calculated by the Litchfield-Wilcoxon method based on the number of death 72 hours after the administration.

[2] = Acute toxicity test (LD50, Litchfield-Wilcoxon), mice; conditions: mouse, in vivo, ip, intraperitoneal
Method: as §1

[3] = test system: normal mice and SART stress mice; assay: Analgesic effect, tail pressure method (Randall-Selitto's device); format: in vivo, mice (ddY-strain male); conditions: 60 minutes; for change in vivo at 100 mg/kg / change in vivo at 200 mg/kg: Mus musculus, ip, 1 h; for change in vivo at 100 mg/kg: intraperitoneal 100 mg/kg; for change in vivo at 200 mg/kg: intraperitoneal 200 mg/kg; for Analgesic effect: intraperitoneal 50 mg/kg
Method: 5.1 Tail pressure method:
Randall-Selitto's device for determining analgesic effect by pressure stimulation was used. […]. The compounds of the present invention or other comparative drugs were given thereto and analgesic effect was determined. The effect was judged by measuring pressure applied 60 minutes after the intraperitoneal administration of the compounds of the present invention. The pressure thus measured was divided by a pressure before the administration. The value thus obtained was compared with that of a control group (to which 10 ml./Kg of 0.5% sodium salt of carboxymethylcellulose or 0.5% Tween 80 was given). When the compounds of the present invention were given perorally and other comparative drugs were given, an average of the pressure at 30, 60, 90 and 120 minutes after the administration was employed for evaluating the effect.

[4] = test system: normal mice and SART stress mice; assay: Analgesic effect, D'Amour-Smith method; format: in vivo, mice (ddY-strain male); conditions: Mus musculus, ip; for responders at 200 mg/kg: intraperitoneal 200 mg/kg; for responders at 100 mg/kg: intraperitoneal 100 mg/kg
Method: 5.3. D'Amour-Smith method:
Groups each comprising 10 ddY-strain male normal mice and SART stress mice to which SART stress had been applied for 4 days were used. The root of the tail of the mouse to which black ink was applied was irradiated with infrared rays for up to 15 seconds. Time required till escape response was observed was measured. The effect was shown by the ratio of the mice in which an average value of the response time at 30, 60, 90 and 120 minutes after the administration of the compounds of the present invention or other comparative drugs was prolonged to at least 2 times as long as the time before the administration.

[5] = test system: ddY-strain male mice; assay: Effect of prolongation of sleeping time (hexobarbital); format: in vivo; conditions: for change in vivo at 100 mg/kg / change in vivo at 300 mg/kg: Mus musculus, ip; for change in vivo at 100 mg/kg: 100 mg/kg intraperitoneal; for change in vivo at 300 mg/kg: 300 mg/kg intraperitoneal
Method: 7. Effect of prolongation of sleeping time:
Groups of mice each comprising 10 ddY-strain male mice were used. Sodium salt of hexobarbital was given intraperitoneally. Thereafter, the period of time in which righting reflex disappeared was measured. The effect was evaluated on the basis of prolongation of time of disappearance of righting reflex by the intraperitoneal administration of the compounds of the present invention as compared with control mice.

[6] = test system: normal mice and SART stress mice; assay: Analgesic effect, acetic acid writhing method; format: in vivo; conditions: Mus musculus, sc, 100 mg/Kg subcutaneously
Method: 5.2. Acetic acid writhing method: 0.1 ml./10 g of isotonic sodium chloride solution containing 0.7% acetic acid was given intraperitoneally to groups of mice each comprising 5 normal mice and 5 SART stress mice to which SART stress had been applied for 8 days. Writhing syndromes number appeared for 15 minutes after the administration was measured. The effect was evaluated by giving 100 mg/Kg of the compounds of the present invention or DPH subcutaneously and comparing the writhing syndromes number of the mice with that of control mice.

| SMILES | LD50 at 72 h ([1]; female) | LD50 at 72 h ([1]; male) | LD50 at 72 h ([2]; female) | LD50 at 72 h ([2]; male) | change in vivo at 100 mg/kg [5] | other results |
| --- | --- | --- | --- | --- | --- | --- |
| COc1cc(C2(c3cc(OC)c(OC)c(OC)c3)NC(=O)NC2=O)cc(OC)c1OC [Compound 23, 5,5-Bis(3,4,5-trimethoxyphenyl)hydantoin] | > 5000 mg/kg | > 5000 mg/kg | > 5000 mg/kg | > 5000 mg/kg | 19.9% | change in vivo at 100 mg/kg ([3]; SART stress mice): 66%; change in vivo at 100 mg/kg ([3]; normal mice): 38.1%; responders at 200 mg/kg ([4]; SART stress mice): 40%; responders at 200 mg/kg ([4]; normal mice): 20%; change in vivo at 300 mg/kg [5]: 22.6% |
| O=C1NC(=O)C(c2ccc(O)c(O)c2)(c2ccc(O)c(O)c2)N1 [Compound 17, 5,5-Bis(3,4-dihydroxyphenyl)hydantoin] | 2220 mg/kg | 2400 mg/kg | 1800 mg/kg | 1500 to 2000 mg/kg |  |  |
| CCC1(c2ccccc2O)NC(=O)NC1=O (centres unmarked) [Compound 25, 5-Ethyl-5-(2-hydroxyphenyl)hydantoin] | 1480 mg/kg | 1600 mg/kg | 1040 mg/kg | 1230 mg/kg |  | inhibition in vivo at 100 mg/kg ([6]; SART stress mice): 19.8%; inhibition in vivo at 100 mg/kg ([6]; normal mice): 1.9%; change in vivo at 200 mg/kg ([3]; SART stress mice): 49%; change in vivo at 200 mg/kg ([3]; normal mice): 35.5%; change in vivo at 300 mg/kg [5]: 55.4% |
| COc1cc(C2(c3ccc(OC)c(OC)c3OC)NC(=O)NC2=O)cc(OC)c1OC (centres unmarked) [Compound 22, 5-(2,3,4-Trimethoxyphenyl)-5-(3,4,5-trimethoxyphenyl)hydantoin] | > 5000 mg/kg | > 5000 mg/kg | > 5000 mg/kg | > 5000 mg/kg | 13.1% |  |
| Cc1ccc(C2(c3ccc(C)cc3)NC(=O)NC2=O)cc1 [Compound 13, 5,5-Bis(4-methylphenyl)hydantoin] | > 5000 mg/kg | > 5000 mg/kg | > 5000 mg/kg | > 5000 mg/kg |  | change in vivo at 300 mg/kg [5]: 14.1% |
| CCCOc1ccc(C2(c3ccc(OCCC)cc3)NC(=O)NC2=O)cc1 [Compound 10, 5,5-Bis(4-propoxyphenyl)hydantoin] | 3800 to 4000 mg/kg | 4000 mg/kg | 3460 mg/kg | 3600 mg/kg |  | Effect of prolongation of sleeping time ([5]; 50 mg/kg intraperitoneal): 17.0% |
| O=C1NC(=O)C(c2cccc(O)c2)(c2cccc(O)c2)N1 [Compound 8, 5,5-Bis(3-hydroxyphenyl)hydantoin] | 1660 mg/kg | 1800 mg/kg | 1270 mg/kg | 1350 mg/kg | 16.9% | change in vivo at 100 mg/kg ([3]; SART stress mice): 54.7%; change in vivo at 100 mg/kg ([3]; normal mice): 22.9% |
| O=C1NC(=O)C(c2ccc(O)cc2)(c2ccc(O)c(O)c2)N1 (centres unmarked) [Compound 14, 5-(3,4-Dihydroxyphenyl)-5-(4-hydroxyphenyl)hydantoin] | 1480 mg/kg | 1500 mg/kg | 1200 mg/kg | 1280 mg/kg | 20.2% | inhibition in vivo at 100 mg/kg ([6]; SART stress mice): 36.2%; inhibition in vivo at 100 mg/kg ([6]; normal mice): 5%; change in vivo at 100 mg/kg ([3]; SART stress mice): 102%; change in vivo at 100 mg/kg ([3]; normal mice): 42.6%; Analgesic effect ([3]; SART stress mice): 78.3%; Analgesic effect ([3]; normal mice): 35.2%; responders at 100 mg/kg ([4]; SART stress mice): 60%; responders at 100 mg/kg ([4]; normal mice): 30% |
| COc1ccc(C2(c3ccc(OC)c(CO)c3)NC(=O)NC2=O)cc1CO [Compound 21, 5,5-Bis(3-hydroxymethyl-4-methoxyphenyl)hydantoin] | > 5000 mg/kg | > 5000 mg/kg | > 5000 mg/kg | > 5000 mg/kg | 25.1% |  |
| COc1ccc(C2(c3ccc(O)cc3)NC(=O)NC2=O)cc1 (centres unmarked) [Compound 11, 5-(4-Hydroxyphenyl)-5-(4-methoxyphenyl)hydantoin] | > 5000 mg/kg | > 5000 mg/kg | 3000 mg/kg | > 3000 mg/kg |  |  |
| O=C1NC(=O)C(c2ccc(O)cc2O)(c2ccc(O)cc2O)N1 [Compound 34, 5,5-Bis(2,4-dihydroxyphenyl)hydantoin] | 2000 to 3000 mg/kg | 2000 to 3000 mg/kg | 1200 mg/kg | > 1000 mg/kg |  |  |

From US4281009A, “Hydantoin derivatives” (Nippon Zoki Pharmaceutical Co., Ltd., priority 1978, dated 1981)
